Test results reported in US20250084078A1, “FUSED RING-SUBSTITUTED SIX-MEMBERED HETEROCYCLIC COMPOUND, AND PREPARATION METHOD THEREFOR AND USE THEREOF” (GENFLEFT THERAPEUTICS (SHANGHAI) INC., priority 2022, published 2025).
Structures can show the parent of a compound that is named as a salt.

Tests used:
HPK1 [1] = target: HPK1 (Homo sapiens, UniProt Q92918); experiment: SLP76 phosphorylation assay (intracellular HPK1 inhibitory activity, p-SLP76 S376 ELISA in Jurkat cells); conditions: Clone E6-1 cells, 1 h compound pre-incubation, anti-CD3 beads stimulation 20 min, Phospho-SLP-76 (Ser376) ELISA
Target sequence in this assay (Q92918 whole entry): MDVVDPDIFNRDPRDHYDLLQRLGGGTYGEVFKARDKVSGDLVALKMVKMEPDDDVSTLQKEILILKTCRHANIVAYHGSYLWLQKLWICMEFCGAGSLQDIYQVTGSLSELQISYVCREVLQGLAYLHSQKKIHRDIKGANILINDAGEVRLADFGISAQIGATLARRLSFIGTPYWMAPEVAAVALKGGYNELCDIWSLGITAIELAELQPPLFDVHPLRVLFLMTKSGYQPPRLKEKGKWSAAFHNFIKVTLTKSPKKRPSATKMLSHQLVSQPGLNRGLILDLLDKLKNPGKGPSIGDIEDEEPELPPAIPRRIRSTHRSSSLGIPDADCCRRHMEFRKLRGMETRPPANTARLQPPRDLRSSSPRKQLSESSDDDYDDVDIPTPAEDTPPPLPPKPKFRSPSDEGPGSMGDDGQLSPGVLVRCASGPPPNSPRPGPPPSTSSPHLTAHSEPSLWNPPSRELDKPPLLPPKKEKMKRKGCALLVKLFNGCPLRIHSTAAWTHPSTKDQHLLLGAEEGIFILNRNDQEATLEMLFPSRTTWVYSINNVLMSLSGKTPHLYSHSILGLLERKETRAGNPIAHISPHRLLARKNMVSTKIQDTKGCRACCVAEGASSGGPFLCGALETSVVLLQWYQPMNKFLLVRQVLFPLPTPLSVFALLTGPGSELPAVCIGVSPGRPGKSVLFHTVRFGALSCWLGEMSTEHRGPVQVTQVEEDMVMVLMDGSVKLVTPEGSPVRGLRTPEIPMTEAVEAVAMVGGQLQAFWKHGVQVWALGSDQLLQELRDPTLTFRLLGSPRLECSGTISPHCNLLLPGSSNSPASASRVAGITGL

HPK1 [2] = target: T1, HPK1 (Homo sapiens, UniProt Q92918); experiment: HPK1 kinase activity assay (ADP-Glo); conditions: 1 nM HPK1, 10 μM ATP, 0.1 μg/μL MBP
T1 sequence (Q92918 1-346): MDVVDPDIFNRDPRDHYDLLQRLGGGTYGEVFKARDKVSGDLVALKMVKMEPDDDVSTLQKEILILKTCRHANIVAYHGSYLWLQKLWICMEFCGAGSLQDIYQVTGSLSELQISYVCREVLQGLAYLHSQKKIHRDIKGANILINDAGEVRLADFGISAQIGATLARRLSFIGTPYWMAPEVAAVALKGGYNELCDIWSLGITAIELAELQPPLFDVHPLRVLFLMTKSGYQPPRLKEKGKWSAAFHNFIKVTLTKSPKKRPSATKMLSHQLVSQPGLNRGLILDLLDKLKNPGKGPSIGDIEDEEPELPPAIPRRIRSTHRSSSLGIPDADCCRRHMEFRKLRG
Experimental: Preparation of buffer: Ix reaction buffer (40 mM Tris-HCl, 20 mM MgCl2, 0.01% Brij35, 50 μM DTT, 0.1 mg/ml BSA) was prepared using sterile water, which was prepared and used on the day of the experiment.
Preparation of 1000× drug stock plate: a 1000× compound stock plate was prepared. […] The compound stock plate was sealed with a sealing film and stored in a −20° C. refrigerator for later use.
Compound preparation and dosing: the 1000× drug stock plate was taken and melted at room temperature in the dark. Then 5× drug intermediate plate was prepared using reaction buffer and mixed well. 2 μL was transferred from the 5× drug intermediate plate into a 384-well plate, and negative control well and positive control well (in which 2 μL reaction buffer containing 0.5% DMSO was added) were set. Each point was repeated twice.
Preparation and incubation of reaction mixture: HPK1 protein was diluted to a 2.5× working solution with reaction buffer. 4 μL 2.5×HPK1 protein was added to each well containing test compound and positive control well, and 4 μL of reaction buffer without HPK1 protein was added to the negative control well. The obtained mixture was centrifuged at 1000 rpm for 1 min and then incubated in a 20° C. incubator for 15 min. A 2.5× mixed working solution of MBP protein and ATP was prepared with reaction buffer at concentrations of 0.5 μg/μL and 50 μM, respectively. 4 μL of the mixed working solution of MBP and ATP was added to each well, centrifuged at 1000 rpm for 1 min, and then incubated in a 20° C. incubator for 90 min.
ADP-Glo detection and reading plate: 10 μl ADP-Glo was added to each well of the test plate. The resulting mixture was centrifuged at 1000 rpm for 1 min and incubated in a 20° C. incubator for 60 min. Then 10 μL of the final incubation solution was transferred from the test plate to a new 384-well plate. 10 μL of kinase detection reagent was added to each well, centrifuged at 400 g for 1 min, and incubated in a 20° C. incubator for 60 min Chemiluminescent signals were read by a microplate reader.

[3] = read-out: HPK1 Kinase activity IC50, ADP-Glo
[4] = HPK1 Kinase activity IC50, ADP-Glo

## 5-(8-(4-fluoropyrrolidin-2-yl)isochromen-6-yl)-3-methyl-1H-pyrrolo[2,3-b]pyridine [Compound Z367-1]
HPK1 [1]; read-out: p-SLP76 IC50, Jurkat
  IC50: 999 nM
HPK1 [2]; [3]
  IC50: 1.44 nM

## Cc1c[nH]c2ncc(-c3cc4c(c([C@@H]5CCCN5)c3)CN(C(=O)C(C)O)C4)cc12 (mixture of isomers) [Compound Z382, rac-2-hydroxy-1-(6-(3-methyl-1H-pyrrolo[2,3-b]pyridin-5-yl)-4-((R)-pyrrolidin-2-yl)isoindolin-2-yl)propan-1-one]
HPK1 [1]; p-SLP76 IC50, Jurkat
  IC50: 474 nM
HPK1 [2]; [4]
  IC50: 1.35 nM

## Cc1c[nH]c2ncc(-c3cc4c(c([C@@H]5CCCN5)c3)CN(C(=O)[C@H](O)c3cccnc3)CC4)cc12 (single isomer, unassigned) [Compound Z287]
HPK1 [1]; p-SLP76 IC50, Jurkat
  IC50: 338 nM
HPK1 [2]; [4]
  IC50: 0.4 nM

## Cc1c[nH]c2ncc(-c3cc4c(c([C@@H]5CCCN5)c3)CN(C(=O)[C@@H](O)c3cccnc3)CC4)cc12 (single isomer, unassigned) [Compound Z288]
HPK1 [1]; p-SLP76 IC50, Jurkat
  IC50: 321 nM
HPK1 [2]; [4]
  IC50: 0.69 nM

## Cc1c[nH]c2ncc(-c3cc4c(c([C@@H]5CCCN5)c3)CN(C(=O)N3CCOC(C(F)(F)F)C3)CC4)cc12 (single isomer, unassigned) [Compound Z490]
HPK1 [1]; p-SLP76 IC50, Jurkat
  IC50: 430 nM
HPK1 [2]; [4]
  IC50: 1.66 nM

## Cc1c[nH]c2ncc(-c3cc4c(c([C@@H]5CCCN5)c3)CN(C(=O)N3CCOC(C(F)(F)F)C3)CC4)cc12 (single isomer, unassigned) [Compound Z491]
HPK1 [1]; p-SLP76 IC50, Jurkat
  IC50: 308 nM
HPK1 [2]; [4]
  IC50: 1.29 nM

## O=C(N1CCc2cc(-c3cnc4[nH]cc(Cl)c4n3)cc([C@@H]3COCCN3)c2C1)N1C[C@@H]2CC[C@H]1CO2 (single isomer, unassigned) [Compound Z590]
HPK1 [1]; p-SLP76 IC50, Jurkat
  IC50: 61.7 nM
HPK1 [2]; [4]
  IC50: 0.24 nM

## Cc1c[nH]c2ncc(-c3cc4c(c([C@@H]5COCCN5)c3)CN(C(=O)N3C[C@@H]5CC[C@H]3CO5)CC4)cc12 (single isomer, unassigned) [Compound Z644]
HPK1 [1]; p-SLP76 IC50, Jurkat
  IC50: 61.6 nM
HPK1 [2]; [4]
  IC50: 0.25 nM

## Cc1c[nH]c2ncc(-c3cc4c(c([C@@H]5CCCN5)c3)CN(C(=O)C(C)(C)C)CC4)cc12 [Compound Z126]
HPK1 [1]; p-SLP76 IC50, Jurkat
  IC50: 252 nM
HPK1 [2]; [4]
  IC50: 0.78 nM

## Cc1c[nH]c2ncc(-c3cc4c(c([C@@H]5CCCN5)c3)CN(C(=O)CC3CC3)CC4)cc12 [Compound Z220, (S)-2-cyclopropyl-1-(6-(3-methyl-1H-pyrrolo[2,3-b]pyridin-5-yl)-8-(pyrrolidin-2-yl)-3,4-dihydroisoquinolin-2(1H)-yl)ethanone]
HPK1 [1]; read-out: p-SLP76 IC50, Jurkat
  IC50: 469 nM
HPK1 [2]; [3]
  IC50: 2.26 nM

## Cc1cc(CC(=O)N2CCc3c(cc(-c4cnc5[nH]cc(C)c5c4)cc3[C@@H]3CCCN3)C2)ccn1 [Compound Z333, (S)-2-(2-methyl-4-pyridyl)-1-[7-(3-methyl-1H-pyrrolo[2,3-b]pyridin-5-yl)-5-pyrrolidin-2-yl-3,4-dihydro-1H-isoquinolin-2-yl]ethanone]
HPK1 [1]; p-SLP76 IC50, Jurkat
  IC50: 205 nM
HPK1 [2]; [4]
  IC50: 0.49 nM

## Cc1c[nH]c2ncc(-c3cc4c(c([C@@H]5COCCN5)c3)CN(C(=O)C(C)(C)O)CC4)cc12 [Compound Z372, (R)-2-hydroxy-2-methyl-1-[6-(3-methyl-1H-pyrrolo[2,3-b]pyridin-5-yl)-8-[morphin-3-yl]-3,4-dihydroisoquinolin-2(1H)-yl]propan-1-one]
HPK1 [1]; p-SLP76 IC50, Jurkat
  IC50: 106 nM
HPK1 [2]; [4]
  IC50: 0.18 nM

## Cc1c[nH]c2ncc(-c3cc4c(c([C@@H]5COCCN5)c3)CN(C(=O)C3CCOCC3)CC4)cc12 [Compound Z375]
HPK1 [1]; p-SLP76 IC50, Jurkat
  IC50: 258 nM
HPK1 [2]; [4]
  IC50: 0.59 nM

## CCNC(=O)N1CCc2cc(-c3cnc4[nH]cc(C)c4c3)cc([C@@H]3COCCN3)c2C1 [Compound Z376, (R)—N-ethyl-6-(3-methyl-1H-pyrrolo[2,3-b]pyridin-5-yl)-8-(morpholin-3-yl)-3,4-dihydroisoquinoline-2(1H)-carboxamide formate]
HPK1 [1]; p-SLP76 IC50, Jurkat
  IC50: 211 nM
HPK1 [2]; [4]
  IC50: 0.33 nM

## Cc1c[nH]c2ncc(-c3cc4c(c([C@@H]5COCCN5)c3)CCN(C(=O)C3CCOCC3)C4)cc12 [Compound Z377, (R)-(7-(3-methyl-1H-pyrrolo[2,3-b]pyridin-5-yl)-5-(morpholin-3-yl)-3,4-dihydroisoquinolin-2(1H)-yl)(tetrahydro-2H-pyran-4-yl)methanone]
HPK1 [1]; p-SLP76 IC50, Jurkat
  IC50: 190 nM
HPK1 [2]; [4]
  IC50: 0.28 nM

## CCc1c(Cl)[nH]c2ncc(-c3cc4c(c([C@@H]5CCCN5)c3)CN(C(=O)COC)CC4)cc12 [Compound Z411]
HPK1 [1]; p-SLP76 IC50, Jurkat
  IC50: 428 nM
HPK1 [2]; [4]
  IC50: 1.12 nM

## CC(C)c1c[nH]c2ncc(-c3cc4c(c([C@@H]5CCCN5)c3)CN(C(=O)C(C)(C)O)CC4)cc12 [Compound Z416, (S)-2-hydroxy-1-(6-(3-isopropyl-1H-pyrrolo[2,3-b]pyridin-5-yl)-8-(pyrrolidin-2-yl)-3,4-dihydroisoquinolin-2(1H)-yl)-2-methylpropan-1-one]
HPK1 [1]; p-SLP76 IC50, Jurkat
  IC50: 63.1 nM
HPK1 [2]; [4]
  IC50: 0.29 nM

## CC(C)c1c[nH]c2ncc(-c3cc4c(c([C@@H]5COCCN5)c3)CN(C(=O)C(C)(C)O)CC4)cc12 [Compound Z419, (R)-2-hydroxy-1-(6-(3-isopropyl-1H-pyrrolo[2,3-b]pyridin-5-yl)-8-(morpholin-3-yl)-3,4-dihydroisoquinolin-2(1H)-yl)-2-methylpropan-1-one]
HPK1 [1]; p-SLP76 IC50, Jurkat
  IC50: 74.2 nM
HPK1 [2]; [4]
  IC50: 0.11 nM

## CCc1c(Cl)[nH]c2ncc(-c3cc4c(c([C@@H]5COCCN5)c3)CN(C(=O)C(C)(C)O)CC4)cc12 [Compound Z422, (R)-1-(6-(2-chloro-3-ethyl-1H-pyrrolo[2,3-b]pyridin-5-yl)-8-(morpholin-3-yl)-3,4-dihydroisoquinolin-2(1H)-yl)-2-hydroxy-2-methylpropan-1-one]
HPK1 [1]; p-SLP76 IC50, Jurkat
  IC50: 349 nM
HPK1 [2]; [4]
  IC50: 0.72 nM

## CC(C)(O)C(=O)N1CCc2cc(-c3cnc4[nH]cc(F)c4c3)cc([C@@H]3COCCN3)c2C1 [Compound Z445, (R)-1-(6-(3-fluoro-1H-pyrrolo[2,3-b]pyridin-5-yl)-8-(morpholin-3-yl)-3,4-dihydroisoquinolin-2(1H)-yl)-2-hydroxy-2-methylpropan-1-one]
HPK1 [1]; p-SLP76 IC50, Jurkat
  IC50: 253 nM
HPK1 [2]; [4]
  IC50: 0.85 nM

## Cc1c[nH]c2ncc(-c3cc4c(c([C@@H]5COCCN5)c3)CCN(C(=O)[C@H]3CCOC3)C4)cc12 [Compound Z446, (7-(3-methyl-1H-pyrrolo[2,3-b]pyridin-5-yl)-5-((R)-morpholin-3-yl)-3,4-dihydroisoquinolin-2(1H)-yl)((S)-tetrahydrofuran-3-yl)methanone]
HPK1 [1]; p-SLP76 IC50, Jurkat
  IC50: 196 nM
HPK1 [2]; [4]
  IC50: 0.83 nM

## O=C(N1CCc2cc(-c3cnc4[nH]cc(Cl)c4c3)cc([C@@H]3COCCN3)c2C1)N1CC2CCC(C1)O2 [Compound Z447, (8-oxa-3-azabicyclo[3.2.1]octan-3-yl)(6-(3-chloro-1H-pyrrolo[2,3-b]pyridin-5-yl)-8-((R)-morpholin-3-yl)-3,4-dihydroisoquinolin-2(1H)-yl)methanone]
HPK1 [1]; p-SLP76 IC50, Jurkat
  IC50: 44.8 nM
HPK1 [2]; [4]
  IC50: 0.18 nM

## CCc1c[nH]c2ncc(-c3cc4c(c([C@@H]5COCCN5)c3)CN(C(=O)N3CCOCC3)CC4)cc12 [Compound Z448, (R)-(6-(3-ethyl-1H-pyrrolo[2,3-b]pyridin-5-yl)-8-(morpholin-3-yl)-3,4-dihydroisoquinolin-2(1H)-yl)(morpholine)methanone]
HPK1 [1]; p-SLP76 IC50, Jurkat
  IC50: 120 nM
HPK1 [2]; [4]
  IC50: 0.29 nM

## Cc1c[nH]c2ncc(-c3cc4c(c([C@@H]5COCCN5)c3)CN(C(=O)C3(O)CCOCC3)CC4)cc12 [Compound Z450]
HPK1 [1]; p-SLP76 IC50, Jurkat
  IC50: 158 nM
HPK1 [2]; [4]
  IC50: 0.22 nM

## Cc1c[nH]c2ncc(-c3cc4c(c([C@@H]5COCCN5)c3)CN(C(=O)N3CC5CCC(C3)O5)CC4)cc12 [Compound Z451, (8-oxa-3-azabicyclo[3.2.1]octan-3-yl)(6-(3-methyl-1H-pyrrolo[2,3-b]pyridin-5-yl)-8-((R)-morpholin-3-yl)-3,4-dihydroisoquinolin-2(1H)-yl)methanone]
HPK1 [1]; p-SLP76 IC50, Jurkat
  IC50: 44.2 nM
HPK1 [2]; [4]
  IC50: 0.11 nM

## Cc1c[nH]c2ncc(-c3cc4c(c([C@@H]5COCCN5)c3)CN(C(=O)N3CC5CCC3CO5)CC4)cc12 (stereo partly drawn) [Compound Z457, (2-oxa-5-azabicyclo[2.2.2]octan-5-yl)(6-(3-methyl-1H-pyrrolo[2,3-b]pyridin-5-yl)-8-((R)-morpholin-3-yl)-3,4-dihydroisoquinolin-2(1H)-yl)methanone]
HPK1 [1]; p-SLP76 IC50, Jurkat
  IC50: 60.9 nM
HPK1 [2]; [4]
  IC50: 0.14 nM

## Cc1c[nH]c2ncc(-c3cc4c(c([C@@H]5COCCN5)c3)CN(C(=O)[C@H]3CCOC3)CC4)cc12 [Compound Z469, [6-(3-methyl-1H-pyrrolidine[2,3-b]pyridin-5-yl)-8-[(R)-morpholin-3-yl]-3,4-dihydroisoquinolin-2(1H)-yl]-[(S)-tetrahydrofuran-3-yl]methanone]
HPK1 [1]; p-SLP76 IC50, Jurkat
  IC50: 125 nM
HPK1 [2]; [4]
  IC50: 0.06 nM

## CC(C)(O)C(=O)N1CCc2cc(-c3cnc4[nH]cc(C(F)(F)F)c4c3)cc([C@@H]3COCCN3)c2C1 [Compound Z473, (R)-2-hydroxy-2-methyl-1-(8-(morpholin-3-yl)-6-(3-(trifluoromethyl)-1H-pyrrolo[2,3-b]pyridin-5-yl)-3,4-dihydroisoquinolin-2(1H)-yl)propan-1-one]
HPK1 [1]; p-SLP76 IC50, Jurkat
  IC50: 143 nM
HPK1 [2]; [4]
  IC50: 0.24 nM

## CCc1c[nH]c2ncc(-c3cc4c(c([C@@H]5COCCN5)c3)CN(C(=O)C(C)(C)O)CC4)cc12 [Compound Z476, (R)-1-(6-(3-ethyl-1H-pyrrolo[2,3-b]pyridin-5-yl)-8-(morpholin-3-yl)-3,4-dihydroisoquinolin-2(1H)-yl)-2-hydroxy-2-methylpropan-1-one]
HPK1 [1]; p-SLP76 IC50, Jurkat
  IC50: 67 nM
HPK1 [2]; [4]
  IC50: 0.21 nM
